A word on the mass density: it is the mass of a sample divided by its volume. For orientation: refractive index means the speed of light in vacuum divided by its phase velocity in the sample.

The values that follow come from the NIST ThermoML archive (doi:10.1021/je0302304).

Data set [1] can be described thus: xn = mol fraction of the nth substance listed. The note with it: 101.32 kPa, Liquid, x2 = 0.
Data set [2] can be described thus: refractive index (Na D-line) (dimensionless); xn = mol fraction of the nth substance listed. Conditions: 101.32 kPa, Liquid, Standard Abbe refractometry, x2 = 0.
The conditions of data set [3]: 101.32 kPa, Liquid.
A short description of data set [4]: refractive index (Na D-line) (dimensionless). The note with it: 101.33 kPa, Liquid, Standard Abbe refractometry.

± gives the expanded uncertainty stated by the source.

In the case of `CCO` [ethanol] + COCCOCCOC, the mass density in data set [1] (288.15 K) worked out at 793.6 ± 0.5 kg/m3; in data set [1] (298.15 K) it was 785.2 ± 0.5 kg/m3; in data set [1] (308.15 K), 776.6 ± 0.5 kg/m3; in data set [1] (318.15 K), 767.9 ± 0.5 kg/m3. The refractive index in data set [2] (288.15 K) was found to be 1.3632 ± 0.0005; in data set [2] (298.15 K), 1.3591 ± 0.0005; in data set [2] (308.15 K) it was 1.3551 ± 0.0005; in data set [2] (318.15 K) it was 1.3509 ± 0.0005.

Take `COCCOC` [1,2-dimethoxyethane]: the mass density in data set [3] (288.15 K) stood at 872.4 ± 0.3 kg/m3; in data set [3] (298.15 K), 861.5 ± 0.3 kg/m3; in data set [3] (308.15 K), 850.4 ± 0.4 kg/m3; in data set [3] (318.15 K), 839.2 ± 0.4 kg/m3. Also, the refractive index in data set [4] (288.15 K) was 1.3824 ± 0.0005; in data set [4] (298.15 K) it was 1.3772 ± 0.0005; in data set [4] (308.15 K) it was 1.3722 ± 0.0005; in data set [4] (318.15 K), 1.3672 ± 0.0005.

Regarding `CCO` [ethanol] + COCCOC, the mass density in data set [1] (288.15 K) came to 793.6 ± 0.5 kg/m3; in data set [1] (298.15 K) it was 785.2 ± 0.5 kg/m3; in data set [1] (308.15 K), 776.6 ± 0.5 kg/m3; in data set [1] (318.15 K) it was 767.9 ± 0.5 kg/m3. Also, the refractive index in data set [2] (288.15 K) is recorded as 1.3632 ± 0.0005; in data set [2] (298.15 K) it was 1.3591 ± 0.0005; in data set [2] (308.15 K) it was 1.3551 ± 0.0005; in data set [2] (318.15 K) it was 1.3509 ± 0.0005.

Consider `COCCOCCOCCOC` [2,5,8,11-tetraoxadodecane], for which the mass density in data set [3] (288.15 K) was 989.7 ± 0.4 kg/m3; in data set [3] (298.15 K), 980.1 ± 0.4 kg/m3; in data set [3] (308.15 K), 970.7 ± 0.4 kg/m3; in data set [3] (318.15 K), 961.1 ± 0.4 kg/m3. Further, the refractive index in data set [4] (288.15 K) was 1.425 ± 0.0005; in data set [4] (298.15 K) it was 1.4209 ± 0.0005; in data set [4] (308.15 K) it was 1.4167 ± 0.0005; in data set [4] (318.15 K) it was 1.4125 ± 0.0005.

As for `COCCOCCOCCOCCOC` [2,5,8,11,14-pentaoxapentadecane], the mass density is 1016 ± 0.3 kg/m3 in data set [3] (288.15 K), 1006.6 ± 0.3 kg/m3 in data set [3] (298.15 K), 997.4 ± 0.3 kg/m3 in data set [3] (308.15 K) and 988.1 ± 0.3 kg/m3 in data set [3] (318.15 K). In addition, the refractive index in data set [4] (288.15 K) worked out at 1.4344 ± 0.0003; in data set [4] (298.15 K), 1.4303 ± 0.0003; in data set [4] (308.15 K), 1.4262 ± 0.0003; in data set [4] (318.15 K), 1.4221 ± 0.0003.

`COCCOCCOC` [2,5,8-trioxanonane]: the mass density in data set [3] (288.15 K) is listed as 948.6 ± 0.3 kg/m3; in data set [3] (298.15 K) it was 938.7 ± 0.3 kg/m3; in data set [3] (308.15 K) it was 928.7 ± 0.3 kg/m3; in data set [3] (318.15 K), 918.6 ± 0.3 kg/m3. The refractive index in data set [4] (288.15 K) was determined as 1.4101 ± 0.0005; in data set [4] (298.15 K) it was 1.4058 ± 0.0005; in data set [4] (308.15 K) it was 1.4012 ± 0.0005; in data set [4] (318.15 K) it was 1.3968 ± 0.0005.

As for `CCO` [ethanol], the mass density amounted to 793.6 ± 0.5 kg/m3 in data set [3] (288.15 K), 785.2 ± 0.5 kg/m3 in data set [3] (298.15 K), 776.6 ± 0.5 kg/m3 in data set [3] (308.15 K) and 767.9 ± 0.5 kg/m3 in data set [3] (318.15 K). Moreover, the refractive index in data set [4] (288.15 K) is 1.3632 ± 0.0005; in data set [4] (298.15 K) it was 1.3591 ± 0.0005; in data set [4] (308.15 K) it was 1.3551 ± 0.0005; in data set [4] (318.15 K) it was 1.3509 ± 0.0005.

Regarding `CCO` [ethanol] + COCCOCCOCCOC, the mass density in data set [1] (288.15 K) amounted to 793.6 ± 0.5 kg/m3; in data set [1] (298.15 K), 785.2 ± 0.5 kg/m3; in data set [1] (308.15 K), 776.6 ± 0.5 kg/m3; in data set [1] (318.15 K) it was 767.9 ± 0.5 kg/m3. The refractive index in data set [2] (288.15 K) was 1.3632 ± 0.0005; in data set [2] (298.15 K), 1.3591 ± 0.0005; in data set [2] (308.15 K), 1.3551 ± 0.0005; in data set [2] (318.15 K) it was 1.3509 ± 0.0005.

Consider `CCO` [ethanol] + COCCOCCOCCOCCOC, for which the mass density in data set [1] (288.15 K) stood at 793.6 ± 0.5 kg/m3; in data set [1] (298.15 K) it was 785.2 ± 0.5 kg/m3; in data set [1] (308.15 K), 776.6 ± 0.5 kg/m3; in data set [1] (318.15 K) it was 767.9 ± 0.5 kg/m3. In addition, the refractive index in data set [2] (288.15 K) is 1.3632 ± 0.0003; in data set [2] (298.15 K) it was 1.3591 ± 0.0003; in data set [2] (308.15 K), 1.3551 ± 0.0003; in data set [2] (318.15 K), 1.3509 ± 0.0003.
